In US10487080B2, “Naphthyridines as integrin antagonists” (GlaxoSmithKline Intellectual Property Development Limited, priority 2016, dated 2019):

Experiments:
Type in all cases: cell-based
[1] = target: T1, αvβ6 (Homo sapiens, UniProt P06756+P18564); assay: Cell Adhesion Assay αvβ6; conditions: K562-αvβ6 cells, ligand LAP-b1, 2 mM MgCl2; read-out: mean affinity (pIC50) αvβ6 (converted)
T1 construct: expressed in transfected cells; host or cells: K562-αvβ6
Experimental: (§1) The following cell lines are used, with ligands in brackets: K562-αvβ3 (LAP-b1), K562-αvβ5 (Vitronectin), K562-αvβ6 (LAP-b1), K562-αvβ8 (LAP-b1), A549-αvβ1 (LAP-b1). The divalent cation used to facilitate adhesion is 2 mM MgCl2. Adhesion is quantified by cell labelling with the fluorescent dye BCECF-AM (Life Technologies), where cell suspensions at 3×10^6cells/nnL are incubated with 0.33 uL/mL of 30 mM BCECF-AM at 37° C. for 10 minutes, then 50 μL/well are dispensed into the 96-well assay plate. At the assay conclusion cells that adhered are lysed using 50 μL/well of 0.5% Triton X-100 in H2O to release fluorescence. Fluorescence intensity is detected using an Envision® plate reader (Perkin Elmer). For active antagonists in the assay, data is fitted to a 4 parameter logistic equation for IC50 determinations.
(§2) Those of skill in the art will recognise that in vitro binding assays and cell-based assays for functional activity are subject to experimental variability.

[2] = target: T2, αvβ1 (Homo sapiens, UniProt P05556+P06756); assay: Cell Adhesion Assay αvβ1; conditions: A549-αvβ1 cells, ligand LAP-b1, 2 mM MgCl2; read-out: mean affinity (pIC50) αvβ1 (converted)
T2 construct: host or cells: A549-αvβ1
Experimental: as §1, §2

[3] = target: T3, αvβ3 (Homo sapiens, UniProt P05106+P06756); assay: Cell Adhesion Assay αvβ3; conditions: K562-αvβ3 cells, ligand LAP-b1, 2 mM MgCl2; read-out: mean affinity (pIC50) αvβ3 (converted)
T3 construct: expressed in transfected cells; host or cells: K562-αvβ3
T3 sequence (P06756 31-889 limits assumed): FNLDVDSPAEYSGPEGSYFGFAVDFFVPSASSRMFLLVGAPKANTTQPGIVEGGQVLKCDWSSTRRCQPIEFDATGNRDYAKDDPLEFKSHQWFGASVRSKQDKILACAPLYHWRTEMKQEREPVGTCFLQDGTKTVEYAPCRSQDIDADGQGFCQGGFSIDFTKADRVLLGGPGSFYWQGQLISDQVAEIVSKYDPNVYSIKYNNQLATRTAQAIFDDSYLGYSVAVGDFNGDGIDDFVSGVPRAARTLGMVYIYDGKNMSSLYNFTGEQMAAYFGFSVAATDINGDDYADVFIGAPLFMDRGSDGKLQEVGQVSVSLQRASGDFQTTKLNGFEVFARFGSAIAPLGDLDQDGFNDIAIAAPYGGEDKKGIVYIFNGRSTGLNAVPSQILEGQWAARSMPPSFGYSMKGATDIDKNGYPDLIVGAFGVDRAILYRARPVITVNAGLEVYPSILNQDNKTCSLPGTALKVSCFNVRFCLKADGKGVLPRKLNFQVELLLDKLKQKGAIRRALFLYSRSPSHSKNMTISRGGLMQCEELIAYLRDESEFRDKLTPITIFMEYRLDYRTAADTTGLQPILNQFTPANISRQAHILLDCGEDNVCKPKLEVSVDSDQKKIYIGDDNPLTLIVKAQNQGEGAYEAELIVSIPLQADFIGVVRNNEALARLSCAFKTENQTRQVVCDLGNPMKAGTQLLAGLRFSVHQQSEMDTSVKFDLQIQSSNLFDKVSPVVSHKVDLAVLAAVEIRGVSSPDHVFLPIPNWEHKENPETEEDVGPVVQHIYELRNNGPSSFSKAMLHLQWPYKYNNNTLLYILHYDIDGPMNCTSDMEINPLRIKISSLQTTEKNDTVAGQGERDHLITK
T3 sequence (P06756 891-1048 partner limits assumed): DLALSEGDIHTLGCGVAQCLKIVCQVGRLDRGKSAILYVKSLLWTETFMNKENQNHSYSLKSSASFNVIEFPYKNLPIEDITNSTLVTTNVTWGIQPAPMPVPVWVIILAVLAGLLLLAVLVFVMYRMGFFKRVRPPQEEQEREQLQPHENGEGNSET
T3 sequence (P05106 27-788): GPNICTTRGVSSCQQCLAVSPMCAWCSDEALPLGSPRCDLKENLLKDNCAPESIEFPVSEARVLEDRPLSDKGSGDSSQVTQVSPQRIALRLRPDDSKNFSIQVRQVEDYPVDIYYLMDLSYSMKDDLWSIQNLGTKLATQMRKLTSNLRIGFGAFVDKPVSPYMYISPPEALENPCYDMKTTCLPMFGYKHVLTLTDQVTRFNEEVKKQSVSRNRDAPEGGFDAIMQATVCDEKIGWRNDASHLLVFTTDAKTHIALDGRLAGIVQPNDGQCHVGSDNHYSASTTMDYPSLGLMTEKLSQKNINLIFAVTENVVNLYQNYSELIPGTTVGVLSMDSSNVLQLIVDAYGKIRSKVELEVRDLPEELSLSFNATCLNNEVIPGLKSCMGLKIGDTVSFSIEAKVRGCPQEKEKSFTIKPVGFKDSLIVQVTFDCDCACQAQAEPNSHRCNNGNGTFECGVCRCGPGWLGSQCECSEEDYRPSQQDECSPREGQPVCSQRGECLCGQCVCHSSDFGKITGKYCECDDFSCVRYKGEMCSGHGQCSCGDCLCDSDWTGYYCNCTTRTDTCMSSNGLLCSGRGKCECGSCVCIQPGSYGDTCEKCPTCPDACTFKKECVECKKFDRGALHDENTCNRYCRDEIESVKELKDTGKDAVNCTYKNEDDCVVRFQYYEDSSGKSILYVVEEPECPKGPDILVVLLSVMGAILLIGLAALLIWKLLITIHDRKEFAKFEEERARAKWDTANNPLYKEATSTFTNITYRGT
Experimental: as §1, §2

[4] = target: T4, αvβ5 (Homo sapiens, UniProt P06756+P18084); assay: Cell Adhesion Assay αvβ5; conditions: K562-αvβ5 cells, ligand Vitronectin, 2 mM MgCl2; read-out: mean affinity (pIC50) αvβ5 (converted)
T4 construct: expressed in transfected cells; host or cells: K562-αvβ5
T4 sequence (P06756 31-889 limits assumed): as the sequence (P06756 31-889 limits assumed) above
T4 sequence (P06756 891-1048 partner limits assumed): as the sequence (P06756 891-1048 partner limits assumed) above
T4 sequence (P18084 24-799): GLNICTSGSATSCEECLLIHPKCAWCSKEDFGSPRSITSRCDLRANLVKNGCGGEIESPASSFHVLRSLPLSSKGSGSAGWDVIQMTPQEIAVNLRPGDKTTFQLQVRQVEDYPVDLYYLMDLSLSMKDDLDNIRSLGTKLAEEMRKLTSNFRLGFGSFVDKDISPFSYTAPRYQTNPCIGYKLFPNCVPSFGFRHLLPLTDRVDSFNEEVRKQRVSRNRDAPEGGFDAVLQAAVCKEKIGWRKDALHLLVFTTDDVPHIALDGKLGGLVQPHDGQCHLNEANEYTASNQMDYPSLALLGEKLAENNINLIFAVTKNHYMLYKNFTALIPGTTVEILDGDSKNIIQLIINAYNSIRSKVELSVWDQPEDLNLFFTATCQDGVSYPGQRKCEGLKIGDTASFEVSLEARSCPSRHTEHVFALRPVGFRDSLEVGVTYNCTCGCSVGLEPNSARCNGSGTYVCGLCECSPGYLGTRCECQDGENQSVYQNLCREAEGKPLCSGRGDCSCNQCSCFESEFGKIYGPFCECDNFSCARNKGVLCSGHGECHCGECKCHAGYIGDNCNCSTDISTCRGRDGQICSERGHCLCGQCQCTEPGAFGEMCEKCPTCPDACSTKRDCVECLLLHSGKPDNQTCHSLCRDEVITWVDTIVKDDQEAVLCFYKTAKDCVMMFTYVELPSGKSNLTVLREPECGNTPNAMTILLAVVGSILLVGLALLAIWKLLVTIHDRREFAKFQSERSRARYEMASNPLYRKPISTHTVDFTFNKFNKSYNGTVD
Experimental: as §1, §2

[5] = target: T5, αvβ8 (Homo sapiens, UniProt P06756+P26012); assay: Cell Adhesion Assay αvβ8; conditions: K562-αvβ8 cells, ligand LAP-b1, 2 mM MgCl2; read-out: mean affinity (pIC50) αvβ8 (converted)
T5 construct: expressed in transfected cells; host or cells: K562-αvβ8
T5 sequence (P06756 31-889 limits assumed): as the sequence (P06756 31-889 limits assumed) above
T5 sequence (P06756 891-1048 partner limits assumed): as the sequence (P06756 891-1048 partner limits assumed) above
T5 sequence (P26012 43-769): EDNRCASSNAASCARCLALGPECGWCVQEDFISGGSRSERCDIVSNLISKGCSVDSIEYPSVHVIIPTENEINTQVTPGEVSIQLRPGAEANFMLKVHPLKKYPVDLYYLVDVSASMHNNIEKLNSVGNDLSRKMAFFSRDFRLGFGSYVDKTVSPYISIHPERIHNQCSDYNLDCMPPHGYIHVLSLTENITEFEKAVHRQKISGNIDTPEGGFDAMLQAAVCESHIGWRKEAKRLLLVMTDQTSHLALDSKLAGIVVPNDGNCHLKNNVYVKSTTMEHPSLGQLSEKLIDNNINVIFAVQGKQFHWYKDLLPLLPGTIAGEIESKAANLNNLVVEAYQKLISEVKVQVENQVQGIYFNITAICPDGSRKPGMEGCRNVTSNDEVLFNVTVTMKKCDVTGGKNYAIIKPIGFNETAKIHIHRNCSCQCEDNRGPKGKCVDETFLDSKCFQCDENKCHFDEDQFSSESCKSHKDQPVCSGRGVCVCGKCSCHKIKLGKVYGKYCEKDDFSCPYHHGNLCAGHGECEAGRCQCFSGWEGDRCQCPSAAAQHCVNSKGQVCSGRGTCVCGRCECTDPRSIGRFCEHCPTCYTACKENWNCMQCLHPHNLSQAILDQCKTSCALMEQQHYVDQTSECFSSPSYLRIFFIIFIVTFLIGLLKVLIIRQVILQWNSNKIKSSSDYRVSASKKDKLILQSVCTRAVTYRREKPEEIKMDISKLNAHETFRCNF
Experimental: as §1, §2

T1 sequence (P06756 31-889 limits assumed): as the sequence (P06756 31-889 limits assumed) above
T1 sequence (P06756 891-1048 partner limits assumed): as the sequence (P06756 891-1048 partner limits assumed) above
T1 sequence (P18564 22-788): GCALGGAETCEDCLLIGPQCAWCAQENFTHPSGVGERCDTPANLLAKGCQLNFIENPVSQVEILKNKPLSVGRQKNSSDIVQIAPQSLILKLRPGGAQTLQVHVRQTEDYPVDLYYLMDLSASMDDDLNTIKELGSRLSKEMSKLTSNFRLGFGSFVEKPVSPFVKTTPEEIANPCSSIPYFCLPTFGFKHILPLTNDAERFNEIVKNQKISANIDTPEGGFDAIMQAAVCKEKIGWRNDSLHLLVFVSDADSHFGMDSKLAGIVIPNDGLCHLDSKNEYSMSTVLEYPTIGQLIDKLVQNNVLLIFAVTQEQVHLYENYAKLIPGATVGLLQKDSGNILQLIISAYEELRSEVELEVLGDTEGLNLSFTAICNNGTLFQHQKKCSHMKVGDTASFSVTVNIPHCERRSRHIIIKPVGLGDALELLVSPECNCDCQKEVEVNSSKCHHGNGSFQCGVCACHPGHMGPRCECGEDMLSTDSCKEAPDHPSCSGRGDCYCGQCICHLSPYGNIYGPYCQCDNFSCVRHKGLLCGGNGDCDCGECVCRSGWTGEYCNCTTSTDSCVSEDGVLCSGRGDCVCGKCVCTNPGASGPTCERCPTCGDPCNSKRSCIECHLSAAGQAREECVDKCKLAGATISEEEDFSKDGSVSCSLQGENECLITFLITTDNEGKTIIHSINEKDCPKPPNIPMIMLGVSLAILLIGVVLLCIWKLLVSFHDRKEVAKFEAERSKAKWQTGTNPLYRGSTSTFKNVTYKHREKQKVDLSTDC

Compound | IC50 [1] | IC50 [2] | IC50 [3] | IC50 [4] | IC50 [5]
COC(C)(C)COc1cccc([C@H](CC(=O)O)CN2CC[C@@H](CCc3ccc4c(n3)NCCC4)C2)c1 [Example 4, (S)-3-(3-(2-methoxy-2-methylpropoxy)phenyl)-4-((R)-3-(2-(5,6,7,8-tetrahydro-1,8-naphthyridin-2-yl)ethyl)pyrrolidin-1-yl)butanoic acid] | – | 158 nM | 200 nM | – | 15.8 nM
COCC(C)(C)Oc1cccc([C@H](CC(=O)O)CN2CC[C@@H](CCc3ccc4c(n3)NCCC4)C2)c1 [Example 11] | – | 50.1 nM | 316 nM | 63.1 nM | 15.8 nM
COCCOc1cccc([C@H](CC(=O)O)CN2CC[C@@H](CCc3ccc4c(n3)NCCC4)C2)c1 [Example 1, (S)-3-(3-(2-methoxyethoxy)phenyl)-4-((R)-3-(2-(5,6,7,8-tetrahydro-1,8-naphthyridin-2-yl)ethyl)pyrrolidin-1-yl)butanoic acid] | 3.16 nM | 158 nM | – | 10 nM | –
COC[C@H](C)Oc1cccc(C(CC(=O)O)CN2CC[C@@H](CCc3ccc4c(n3)NCCC4)C2)c1 (single isomer, unassigned) [Example 5] | – | 251 nM | 3160 nM | – | –
COCCOc1cc(OCCOC)cc([C@H](CC(=O)O)CN2CC[C@@H](CCc3ccc4c(n3)NCCC4)C2)c1 [Example 8, (S)-3-(3,5-Bis(2-methoxyethoxy)phenyl)-4-((R)-3-(2-(5,6,7,8-tetrahydro-1,8-naphthyridin-2-yl)ethyl)pyrrolidin-1-yl)butanoic acid] | 3.16 nM | 200 nM | 126 nM | 31.6 nM | 20 nM
CO[C@H](C)COc1cccc([C@H](CC(=O)O)CN2CC[C@@H](CCc3ccc4c(n3)NCCC4)C2)c1 [Example 2, (S)-3-(3-((R)-2-methoxypropoxy)phenyl)-4-((R)-3-(2-(5,6,7,8-tetrahydro-1,8-naphthyridin-2-yl)ethyl)pyrrolidin-1-yl)butanoic acid] | 2.51 nM | 100 nM | 63.1 nM | 15.8 nM | –
CO[C@@H](C)COc1cccc([C@H](CC(=O)O)CN2CC[C@@H](CCc3ccc4c(n3)NCCC4)C2)c1 [Example 3, (S)-3-(3-((S)-2-methoxypropoxy)phenyl)-4-((R)-3-(2-(5,6,7,8-tetrahydro-1,8-naphthyridin-2-yl)ethyl)pyrrolidin-1-yl)butanoic acid] | 2.51 nM | 126 nM | – | 15.8 nM | 15.8 nM

Next, values leading:

IC50 [1] | IC50 [2] | IC50 [3] | IC50 [4] | IC50 [5] | Compound
5.01 nM | 398 nM | 79.4 nM | 39.8 nM | 20 nM | O=C(O)C[C@H](CN1CC[C@@H](CCc2ccc3c(n2)NCCC3)C1)c1cccc(OC[C@H]2CCCO2)c1 [Example 14, (S)-4-((R)-3-(2-(5,6,7,8-Tetrahydro-1,8-naphthyridin-2-yl)ethyl)pyrrolidin-1-yl)-3-(3-(((R)-tetrahydrofuran-2-yl)methoxy)phenyl)butanoic acid]
7.94 nM | – | 398 nM | – | 20 nM | O=C(O)CC(CN1CC[C@@H](CCc2ccc3c(n2)NCCC3)C1)c1cccc(OCC2COC2)c1 (stereo partly drawn) [Example 20, 3-(3-(Oxetan-3-ylmethoxy)phenyl)-4-((R)-3-(2-(5,6,7,8-tetrahydro-1,8-naphthyridin-2-yl)ethyl)pyrrolidin-1-yl)butanoic acid]
10 nM | – | 100 nM | 31.6 nM | 20 nM | CC(C)OCCOc1cccc([C@H](CC(=O)O)CN2CC[C@@H](CCc3ccc4c(n3)NCCC4)C2)c1 [Example 13, (S)-3-(3-(2-Isopropoxyethoxy)phenyl)-4-((R)-3-(2-(5,6,7,8-tetrahydro-1,8-naphthyridin-2-yl)ethyl)pyrrolidin-1-yl)butanoic acid]
– | – | 251 nM | 63.1 nM | – | COC[C@@H](C)Oc1cccc([C@H](CC(=O)O)CN2CC[C@@H](CCc3ccc4c(n3)NCCC4)C2)c1 [Example 12, (S)-3-(3-(((R)-1-methoxypropan-2-yl)oxy)phenyl)-4-((R)-3-(2-(5,6,7,8-tetrahydro-1,8-naphthyridin-2-yl)ethyl)pyrrolidin-1-yl)butanoic acid]
12.6 nM | – | 398 nM | – | 20 nM | COCC(COC)Oc1cccc(C(CC(=O)O)CN2CC[C@@H](CCc3ccc4c(n3)NCCC4)C2)c1 (stereo partly drawn) [Example 17, 3-(3-((1,3-Dimethoxypropan-2-yl)oxy)phenyl)-4-((R)-3-(2-(5,6,7,8-tetrahydro-1,8-naphthyridin-2-yl)ethyl)pyrrolidin-1-yl)butanoic acid]
5.01 nM | 200 nM | 398 nM | – | 25.1 nM | COCCOc1cc(OCCF)cc(C(CC(=O)O)CN2CC[C@@H](CCc3ccc4c(n3)NCCC4)C2)c1 (stereo partly drawn) [Example 18, 3-(3-(2-Fluoroethoxy)-5-(2-methoxyethoxy)phenyl)-4-((R)-3-(2-(5,6,7,8-tetrahydro-1,8-naphthyridin-2-yl)ethyl)pyrrolidin-1-yl)butanoic acid]
7.94 nM | – | – | – | 100 nM | COCCOc1ccc(F)c([C@H](CC(=O)O)CN2CC[C@@H](CCc3ccc4c(n3)NCCC4)C2)c1 [Example 16, (S)-3-(2-Fluoro-5-(2-methoxyethoxy)phenyl)-4-((R)-3-(2-(5,6,7,8-tetrahydro-1,8-naphthyridin-2-yl)ethyl)pyrrolidin-1-yl)butanoic acid]
5.01 nM | 501 nM | 100 nM | 39.8 nM | 39.8 nM | O=C(O)C[C@H](CN1CC[C@@H](CCc2ccc3c(n2)NCCC3)C1)c1cccc(OC[C@@H]2CCCO2)c1 [Example 15, (S)-4-((R)-3-(2-(5,6,7,8-tetrahydro-1,8-naphthyridin-2-yl)ethyl)pyrrolidin-1-yl)-3-(3-(((S)-tetra hydrofuran-2-yl)methoxy)phenyl)butanoic acid]
10 nM | – | 158 nM | 63.1 nM | 12.6 nM | COCCCOc1cccc(C(CC(=O)O)CN2CC[C@@H](CCc3ccc4c(n3)NCCC4)C2)c1 (stereo partly drawn) [Example 19, 3-(3-(3-Methoxypropoxy)phenyl)-4-((R)-3-(2-(5,6,7,8-tetrahydro-1,8-naphthyridin-2-yl)ethyl)pyrrolidin-1-yl)butanoic acid]
